{"source": "patent US20230063321A1", "about": "“Methods for Treating Inflammatory Bowel Diseases with alpha4beta7 Integrin Antagonists” (Protagonist Therapeutics, Inc., priority 2020, published 2023)", "key": {"[1]": {"experiment": "Study 1 pharmacokinetics in healthy male volunteers (liquid solution)", "settings": "for half-life: oral; for dose excreted: urine, recovered intact in urine over 24 hours, multiple dose", "procedure": "Dose escalation proceeded from 100 mg, 300 mg, 1000 mg, 1400 mg. Subjects in the 300 mg dose cohort received treatment in the fasted state on one occasion and following a high fat meal on a second occasion in a crossover fashion. The high fat meal consisted of two eggs fried in butter, two strips of bacon, two slices of toast with butter, four ounces of hash brown potatoes and 240 ml of whole milk. During Part 1, subjects refrained from food and drink except water for 10 hours before and for four hours after dosing with the exception of subjects in the 300 mg dose cohort during the fed treatment.\nPart 2 was a randomized, placebo-controlled, double-blind multiple ascending dose study in 50 male subjects divided equally into 5 cohorts. […] Doses evaluated in Part 2 included 100 mg, 300 mg and 1000 mg. During Part 2, two cohorts of subjects (100 mg and 300 mg) received food approximately 30 minutes prior to each dose and another two cohorts of subjects (300 mg and 100 mg) refrained from food for 10 hours before and for 1 hour after dosing.\nStudy 1: The single and multiple ascending dose phase of the study consisted of sequential dose escalations in 10 subject per dose cohort. […] Dose solutions were formulated in 50 mM phosphate buffer pH 7.4 and were prepared weekly by a qualified pharmacist.\nBlood samples for pharmacokinetics were collected predose and for 48 hours postdose following single doses. In the multiple ascending dose phase, blood samples were obtained on Days 1-3 and 14-16; on Days 8 samples were obtained predose, 4, and 12 hours. On Day 10 of the MAD, subjects were required to collect all urine for the 0-6, 6-12, 12-18, and 18-24 hour intervals postdose and on Day 11 subjects were required to collect fecal samples.\nThe drug and internal standard were extracted from the matrix by a protein precipitation procedure. The limit of quantitation was 0.2 ng/mL, 20 ng/mL, and 100 ng/mL in plasma, urine, and feces, respectively. […] Coefficient of determinations for the calibration curves were at least 0.99 for all matrices. The interassay accuracy (% bias) ranged from −2.2% to 1.0% for plasma, −3.8% to 9.0% for urine and −5.0 to 5.2% for feces. Interassay precision (% CV) ranged from 3.7% to 7.7% for plasma, 2.8% to 7.0% for urine, and 1.2% to 5.2% for feces.\nPharmacokinetic parameters were estimated by noncompartmental methods using Phoenix WinNonlin (Certara, Princeton N.J.). Peak plasma concentration (Cmax) and time to peak plasma concentration (Tmax) were observed values. The elimination rate was estimated from the slope of the least-squares regression on the terminal log-linear phase. Area under the plasma concentration-time curve from time zero to the last quantifiable concentration (AUCt) was estimated by a linear trapezoidal method and was extrapolated to infinity (AUC∞) by dividing the last quantifiable concentration b the elimination rate."}, "[2]": {"tested_on": "gut homing of ATRA+ T cells", "experiment": "Gut homing of cultured T cells transferred into recipient mice", "assay_type": "in vivo, C57BL/6 mice", "experimental": "Purified CD3+ cells were isolated from B6.SJL (CD45.1+) donor mice and cultured in the presence of anti-CD3/anti-CD28 beads and IL-2 to induce T cell activation and proliferation. In some culture conditions, Compound A and/or ATRA were added. To track the cells in vivo, ATRA− and ATRA+ cells were labeled with CMFDA and CTFR respectively. These labeled cells were then co-injected into C57BL/6 (CD45.2+) recipient mice.\nThe proportion of ATRA− and ATRA+ cells in spleen, Peyer's patches (PP), and ileal lamina propria (LP) of the recipient mice was measured by flow cytometry to evaluate cell homing.\nThirty-eight (38) C57BL/6 (CD45.2+) recipient mice were acclimated for 9 weeks before the start of the study (Day 0) and were 16 weeks old at cell transfer (Day 5). On Day 4, recipient mice were assigned to groups in a balanced manner to achieve similar average weight across the groups.\nOn Day 5, after removal of CD3/CD28 beads from cell cultures with a magnet, ATRA+ cells were labeled with CFTR, and ATRA− cells were labeled with CMFDA. Cells from each culture condition were then counted. For each group, ATRA− cells and cells from one of the ATRA+ culture conditions were mixed at a 1:1 ratio per Table 8 below and transferred into the recipient mice. Approximately 13 million of each type of cells (total of 26 million cells) were injected i.v. into each mouse.\nMice in Group 2 were dosed with anti-VLA-4 once, on Day 5 prior to cell transfer. Anti-VLA-4 (PS/2) antibodies were purchased from BioXCell and were kept at −80 C until needed. Antibodies were diluted to a final concentration of 1 mg/mL with sterile PBS and dosed at 10 mg/kg, intraperitoneally. No in vivo treatment was administered to other groups.\nTwenty (20) to 22 hours after cell transfer all mice were euthanized, and their blood, spleen, Peyer's patches and small intestines collected. Approximately 50 μL of plasma was isolated from the blood of each mouse and sored on dry ince until further analysis.\nCells from the following tissues were isolated from each mouse for flow cytometric analysis: • Spleen • Peyer's patches • Ileal lamina propria Isolated cells were counted and stained with anti-CD45.1 antibodies and live/dead stain. Cells were then acquired for flow cytometric analysis and the proportions of CD45.1+, ATRA+ and ATRA− cells in each tissue determined."}, "[3]": {"molecular_target": "T1, memory CD4+ T cells expressing α4β7 / recombinant MAdCAM1 (Homo sapiens, UniProt P13612+P26010)", "T1 construct": "endogenous in cells", "T1 sequence (P13612 34-1032)": "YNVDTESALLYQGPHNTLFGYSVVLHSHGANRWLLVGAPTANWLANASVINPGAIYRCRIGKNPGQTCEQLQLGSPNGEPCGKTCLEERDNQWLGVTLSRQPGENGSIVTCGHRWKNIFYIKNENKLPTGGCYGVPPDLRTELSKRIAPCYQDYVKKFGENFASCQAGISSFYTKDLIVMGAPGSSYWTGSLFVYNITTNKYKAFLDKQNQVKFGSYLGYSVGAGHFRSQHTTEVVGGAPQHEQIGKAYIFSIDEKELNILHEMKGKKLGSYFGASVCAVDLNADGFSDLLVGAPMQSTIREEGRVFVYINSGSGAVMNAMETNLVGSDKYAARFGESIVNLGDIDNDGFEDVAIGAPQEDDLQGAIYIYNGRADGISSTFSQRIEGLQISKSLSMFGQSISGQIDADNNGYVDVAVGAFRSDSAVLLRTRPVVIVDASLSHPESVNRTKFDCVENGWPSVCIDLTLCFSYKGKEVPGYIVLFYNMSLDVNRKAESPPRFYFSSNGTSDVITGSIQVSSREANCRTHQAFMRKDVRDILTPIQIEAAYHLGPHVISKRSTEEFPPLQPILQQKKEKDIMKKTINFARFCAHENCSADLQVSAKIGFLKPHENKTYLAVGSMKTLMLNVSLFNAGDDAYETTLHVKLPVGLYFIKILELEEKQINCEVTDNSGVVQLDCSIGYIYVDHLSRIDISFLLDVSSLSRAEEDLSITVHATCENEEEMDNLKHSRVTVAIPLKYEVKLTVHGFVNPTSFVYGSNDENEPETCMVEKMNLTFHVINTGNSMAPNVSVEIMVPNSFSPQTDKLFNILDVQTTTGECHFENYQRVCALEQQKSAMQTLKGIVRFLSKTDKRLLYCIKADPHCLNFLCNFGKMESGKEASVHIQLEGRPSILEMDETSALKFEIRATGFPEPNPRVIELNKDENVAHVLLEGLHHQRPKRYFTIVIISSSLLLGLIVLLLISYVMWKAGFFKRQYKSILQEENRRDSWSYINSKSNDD", "T1 sequence (P26010 20-798)": "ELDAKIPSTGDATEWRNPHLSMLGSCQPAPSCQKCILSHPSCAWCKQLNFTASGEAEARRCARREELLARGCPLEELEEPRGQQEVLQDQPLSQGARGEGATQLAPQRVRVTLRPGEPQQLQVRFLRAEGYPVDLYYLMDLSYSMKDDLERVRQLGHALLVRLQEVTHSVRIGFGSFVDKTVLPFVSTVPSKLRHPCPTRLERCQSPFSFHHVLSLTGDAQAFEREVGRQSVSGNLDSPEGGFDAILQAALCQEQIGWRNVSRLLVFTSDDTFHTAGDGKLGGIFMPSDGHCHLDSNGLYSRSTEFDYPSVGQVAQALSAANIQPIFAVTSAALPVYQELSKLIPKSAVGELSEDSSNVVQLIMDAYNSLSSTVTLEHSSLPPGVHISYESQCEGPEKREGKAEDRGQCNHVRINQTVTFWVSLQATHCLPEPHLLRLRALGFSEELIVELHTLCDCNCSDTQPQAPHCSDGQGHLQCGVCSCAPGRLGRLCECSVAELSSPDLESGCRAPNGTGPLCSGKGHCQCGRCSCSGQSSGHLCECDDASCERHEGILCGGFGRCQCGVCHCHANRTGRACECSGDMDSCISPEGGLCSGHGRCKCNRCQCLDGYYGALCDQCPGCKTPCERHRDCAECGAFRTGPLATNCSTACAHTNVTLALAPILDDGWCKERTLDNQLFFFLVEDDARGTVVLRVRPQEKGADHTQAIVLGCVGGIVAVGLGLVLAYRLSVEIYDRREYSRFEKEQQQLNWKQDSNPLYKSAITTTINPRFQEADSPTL", "experiment": "Potency against memory CD4+ T cells expressing α4β7 to recombinant MAdCAM1", "assay_type": "cell-based", "settings": "cells isolated from human PBMCs"}, "[4]": {"experiment": "Safety and tolerability in healthy volunteers", "settings": "for tolerability: single and multiple oral doses"}}, "note": "Numbered stars: 1 amine (or outer) side, 2 acyl side, 3 side chain; on linkers, the order of the positions; unused ones are H or OH. Bridge positions count the residues as written; N and C are the ends. Square brackets hold non-standard residues; d marks the D form. Peptide text beside a SMILES is read from it. I, II: the chains in the order shown. ξ: configuration not given here. Phe(4-tBu) = CC(C)(C)c1ccc(C[C@H](N)C(=O)O)cc1; Diglycolyl = O=C(COCC(=O)[*:2])[*:1]; NMeR = CN[C@@H](CCCNC(=N)N)C(=O)O; β3hE = N[C@@H](CCC(=O)O)CC(=O)O; Thr(3ξ) = CC(O)[C@H](N)C(=O)O; X1 = O=C(c1ccccc1C[*:2])[*:1]; Pen = CC(C)(S)[C@H](N)C(=O)O", "data": [{"smiles": "CC(C)C[C@@H]1NC(=O)[C@H](C(C)O)NC(=O)[C@H](CC(=O)O)NC(=O)[C@H](CO)NC(=O)[C@H](CCCNC(=N)N)N(C)C(=O)c2ccccc2CSC(C)(C)[C@@H](C(=O)N[C@@H](Cc2ccc(C(C)(C)C)cc2)C(=O)N[C@@H](CCC(=O)O)CC(=O)N[C@H](CCCCNC(=O)COCC(=O)NCCCC[C@@H](NC(=O)C[C@H](CCC(=O)O)NC(=O)[C@H](Cc2ccc(C(C)(C)C)cc2)NC(=O)[C@H]2NC(=O)[C@H](CC(C)C)NC(=O)[C@H](C(C)O)NC(=O)[C@H](CC(=O)O)NC(=O)[C@H](CO)NC(=O)[C@H](CCCNC(=N)N)N(C)C(=O)c3ccccc3CSC2(C)C)C(=O)O)C(=O)O)NC1=O", "note": "(stereo partly drawn) [Compound A, ((2-Benzyl)-(N-Me-R)-Ser-Asp-Thr-Leu-Pen-(Phe(4-tBlu))-(β-homo-Glu)-(D-Lys)-OH)2 (SEQ ID NO: 5) and linker-DIG diglycolic acid] (I: [NMeR]SD[Thr(3ξ)]L[Pen][Phe(4-tBu)][β3hE][dK]-OH / II: [NMeR]SD[Thr(3ξ)]L[Pen][Phe(4-tBu)][β3hE][dK]-OH; linker I:9-II:9 via Diglycolyl; linker I:N-I:6, II:N-II:6 via X1)", "values": [{"measurement": "half-life", "setting": "[1]; male, human, plasma, mean elimination half-life, multiple doses", "result": "5.2 to 7.7", "unit": "h"}, {"measurement": "half-life", "setting": "[1]; male, human, plasma, terminal half-life, fasted state", "result": "3.1 to 5.7", "unit": "h"}, {"measurement": "half-life", "setting": "[1]; male, human, plasma, terminal half-life, fed state", "result": "5.2 to 7.7", "unit": "h"}, {"measurement": "Tmax", "setting": "[1]; male, human, plasma, po, 300 mg, median time to peak plasma concentration, single dose 300 mg, meal 30 minutes after dosing", "result": 1, "unit": "h"}, {"measurement": "dose excreted", "setting": "[1]; male, human, po, 300 mg, 300 mg fasted", "result": 0.028, "unit": "%"}, {"measurement": "dose excreted", "setting": "[1]; male, human, po, 300 mg, 300 mg fed", "result": 0.056, "unit": "%"}, {"measurement": "dose excreted", "setting": "[1]; male, human, po, 1000 mg", "result": 0.056, "unit": "%"}, {"measurement": "accumulation", "setting": "[1]; once daily", "result": "approximately 0.9 fold"}, {"measurement": "median time to peak plasma concentration", "setting": "[1]; single dose 300 mg, meal 60 minutes after dosing", "result": 2, "unit": "h"}, {"measurement": "median time to peak plasma concentration", "setting": "[1]; single dose 300 mg, meal 90 minutes after dosing", "result": 4, "unit": "h"}, {"measurement": "accumulation", "setting": "[1]; twice-daily", "result": "~1.6", "unit": "fold"}, {"measurement": "ATRA+/10^3 live cells +/− SD in Ileal LP", "setting": "[2]; cells cultured with 100 nM", "result": "4.3 +/− 1.7 /10^3 live cells"}, {"measurement": "ATRA+/10^3 live cells +/− SD in Peyer's patches", "setting": "[2]; cells cultured with 100 nM", "result": "0.3 +/− 0.2 /10^3 live cells"}, {"measurement": "ATRA+/10^3 live cells +/− SD in spleen", "setting": "[2]; cells cultured with 100 nM", "result": "2.9 +/− 0.3 /10^3 live cells"}, {"measurement": "ATRA−/10^3 live cells +/− SD in Ileal LP", "setting": "[2]; cells cultured with 100 nM", "result": "0.3 +/− 0.1 /10^3 live cells"}, {"measurement": "ATRA−/10^3 live cells +/− SD in Peyer's patches", "setting": "[2]; cells cultured with 100 nM", "result": "0.2 +/− 0.2 /10^3 live cells"}, {"measurement": "ATRA−/10^3 live cells +/− SD in spleen", "setting": "[2]; cells cultured with 100 nM", "result": "9.0 +/− 1.1 /10^3 live cells"}, {"measurement": "CD45.1+ cells/10^3 live cells +/− SD, Ileal LP", "setting": "[2]; cells cultured with 100 nM", "result": "4.6 +/− 1.8 /10^3 live cells"}, {"measurement": "CD45.1+ cells/10^3 live cells +/− SD, Peyer's patches", "setting": "[2]; cells cultured with 100 nM", "result": "0.6 +/− 0.3 /10^3 live cells"}, {"measurement": "CD45.1+ cells/10^3 live cells +/− SD, Spleen", "setting": "[2]; cells cultured with 100 nM", "result": "12.1 +/− 1.4 /10^3 live cells"}, {"measurement": "Total number of cells isolated (×10^3), Ileal LP", "setting": "[2]; cells cultured with 100 nM", "result": "2005 +/− 1276 ×10^3"}, {"measurement": "Total number of cells isolated (×10^3), Peyer's patches", "setting": "[2]; cells cultured with 100 nM", "result": "673 +/− 295 ×10^3"}, {"measurement": "Total number of cells isolated (×10^3), Spleen", "setting": "[2]; cells cultured with 100 nM", "result": "100650 +/− 10215 ×10^3"}, {"measurement": "ATRA+/10^3 live cells +/− SD in Ileal LP", "setting": "[2]; cells cultured with 1000 nM", "result": "3.5 +/− 1.8 /10^3 live cells"}, {"measurement": "ATRA+/10^3 live cells +/− SD in Peyer's patches", "setting": "[2]; cells cultured with 1000 nM", "result": "0.3 +/− 0.1 /10^3 live cells"}, {"measurement": "ATRA+/10^3 live cells +/− SD in spleen", "setting": "[2]; cells cultured with 1000 nM", "result": "2.4 +/− 0.5 /10^3 live cells"}, {"measurement": "ATRA−/10^3 live cells +/− SD in Ileal LP", "setting": "[2]; cells cultured with 1000 nM", "result": "0.2 +/− 0.1 /10^3 live cells"}, {"measurement": "ATRA−/10^3 live cells +/− SD in Peyer's patches", "setting": "[2]; cells cultured with 1000 nM", "result": "0.2 +/− 0.1 /10^3 live cells"}, {"measurement": "ATRA−/10^3 live cells +/− SD in spleen", "setting": "[2]; cells cultured with 1000 nM", "result": "8.0 +/− 1.4 /10^3 live cells"}, {"measurement": "CD45.1+ cells/10^3 live cells +/− SD, Ileal LP", "setting": "[2]; cells cultured with 1000 nM", "result": "3.8 +/− 1.7 /10^3 live cells"}, {"measurement": "CD45.1+ cells/10^3 live cells +/− SD, Peyer's patches", "setting": "[2]; cells cultured with 1000 nM", "result": "0.6 +/− 0.1 /10^3 live cells"}, {"measurement": "CD45.1+ cells/10^3 live cells +/− SD, Spleen", "setting": "[2]; cells cultured with 1000 nM", "result": "10.6 +/− 1.9 /10^3 live cells"}, {"measurement": "Total number of cells isolated (×10^3), Ileal LP", "setting": "[2]; cells cultured with 1000 nM", "result": "1730 +/− 1023 ×10^3"}, {"measurement": "Total number of cells isolated (×10^3), Peyer's patches", "setting": "[2]; cells cultured with 1000 nM", "result": "775 +/− 360 ×10^3"}, {"measurement": "Total number of cells isolated (×10^3), Spleen", "setting": "[2]; cells cultured with 1000 nM", "result": "90617 +/− 13418 ×10^3"}, {"measurement": "IC50", "setting": "[3]", "result": 0.265, "unit": "nM"}, {"measurement": "maximally tolerated dose, multiple dose (highest dose tested)", "setting": "[4]; healthy volunteers", "result": 1000, "unit": "mg"}, {"measurement": "maximally tolerated dose, single dose (highest dose tested)", "setting": "[4]; healthy volunteers", "result": 1400, "unit": "mg"}, {"measurement": "subjects reporting AEs", "setting": "[4]; multiple doses", "result": "Thirty"}, {"measurement": "total AEs", "setting": "[4]; multiple doses", "result": 68, "unit": "AEs"}, {"measurement": "QTc prolongation", "setting": "[4]; single and multiple doses", "result": "no evidence of QTc prolongation was observed"}, {"measurement": "tolerability", "setting": "[4]", "result": "generally well tolerated"}, {"measurement": "tolerability", "setting": "[4]; listed as COMPOUND A", "result": "safe and well tolerated"}, {"measurement": "TEAEs in subjects who received drug", "setting": "[4]; single ascending dose phase", "result": 21, "unit": "events"}, {"measurement": "subjects with TEAEs who received drug", "setting": "[4]; single ascending dose phase", "result": 12, "unit": "subjects"}, {"measurement": "dose-limiting toxicities", "setting": "[4]; single doses up to 1400 mg, multiple up to 1000 mg", "result": "no dose-limiting toxicities observed"}]}]}
